The source of these data is patent publication US11358950B2, “SMAC mimetics used as IAP inhibitors and use thereof” (CHIA TAI TIANQING PHARMACEUTICAL GROUP CO., LTD., priority 2017, dated 2022).

For one assay, the system named is MDA-MB-231 cells. Description: In-vitro cell viability test (CellTiter-Glo, 7 days). The following applies: Homo sapiens, 168 h, 7 days incubation. It counts as cell-based. As for the experimental part: RPMI 1640 medium (Invitrogen-22400089); fetal bovine serum (Invitrogen-10099141); Trypsin, 0.05% (1×) with EDTA 4Na (Invitrogen-25300062); luminescent cell viability assay kit (Promega-G7573); Dulbecco's phosphate buffered saline (HyClone-SH30028.01B); and 384-well plate (Corning-6007680). Envision Multi-label Analyzer.
1. 30 μL of MDA-MB-231 cell suspension, which contained 250 MDA-MB-231 cells, was added into the wells of a 384-microwell plate.
2. 20 μL of a test compound (the test compounds were formulated at a high concentration of 10 μM, the test compounds were subjected to a 5-fold gradient dilution, and each compound was diluted to 10 concentration gradients) was added, and then the cell plate was put back into a carbon dioxide incubator to be incubated for 7 days.
3. The cell plate was kept flat at room temperature for 30 minutes.
4. 20 μL of a Promega CellTiter-Glo reagent was added into each well of the cell plate.
5. After 10 minutes, the Envision Multi-label Analyzer was used for data reading.
(ATP-based viability assays read luminescence as a measure of living cells.)

Assay [1] has as its system MDA-MB-231 triple-negative breast cancer CDX. Description: In-vivo drug efficacy study 1, MDA-MB-231 CDX model. Details: species or system BALB/c nude mice. The protocol: (§1) The in-vivo drug efficacy experiments were carried out in BALB/c nude mice implanted subcutaneously with human tumor cell line-derived xenograft (CDX) derived from patients suffering from MDA-MB-231 triple-negative breast cancer.
(§2) BALB/c nude mice, female, 6 to 8 weeks old, weighing about 18 to 22 g, were kept in a special pathogen-free environment and in separated ventilated cages (3 mice per cage). All cages, bedding and water were disinfected before use. All animals had free access to standard certified commercial laboratory diets. A total of 48 mice purchased from Shanghai BK Laboratory Animal Co., LTD were used for the study. Each mouse was inoculated subcutaneously in the right flank with tumor cells (10×10^6 cells in 0.2 mL of a phosphate buffer) for tumor growth. The administration was initiated when the average tumor volume reached about 147 cubic millimeters. The test compounds were orally administered daily at a dose of 30 mg/kg. Tumor volumes were measured with a two-dimensional caliper every 3 days. The volume was measured in cubic millimeters and calculated by the following formula: V=0.5 a×b^2, where a and b were the long and short diameters of a tumor, respectively. Anti-tumor efficacy was determined by dividing the average increase in tumor volume of animals treated with a compound by the average increase in tumor volume of untreated animals.

Assay [2] shares this test system. Description: In-vivo drug efficacy study 2, MDA-MB-231 CDX model. Details: species or system BALB/c nude mice. The protocol:
as §1
as §2, with “110” for “147”

As a reminder, the IC50 is the concentration that gives 50% inhibition. `CN[C@@H](C)C(=O)N[C@H](C(=O)N1CCC[C@H]1Cn1cc(C(C)=O)c2cc(Cl)ccc21)C1CCCCC1` [Example 2] yielded a 50% inhibitory concentration (IC50) in the assay on MDA-MB-231 cells of 54.8 nM. The “Tumor volume” value in assay [1] (Day 0, 30 mg/kg oral daily) was 147 mm^3; in assay [1] (Day 6, 30 mg/kg oral daily), 214 mm^3; in assay [1] (Day 13, 30 mg/kg oral daily), 282 mm^3; in assay [1] (Day 20, 30 mg/kg oral daily) it was 810 mm^3; in assay [2] (Day 0, 30 mg/kg oral daily) it was 110 mm^3; in assay [2] (Day 5, 30 mg/kg oral daily), 111 mm^3. Besides, the Tumor volume in assay [2] (Day 12, 30 mg/kg oral daily) turned out to be 86 mm^3; in assay [2] (Day 20, 30 mg/kg oral daily), 177 mm^3.
